Entries after “also recorded” stand apart in the source; their conditions may differ.
What was measured:
ptc>dRet^M955T flies [1] = test: fly rough eye phenotype; conditions: APS6-45 100 μM, AD80 100 μM
[2] = tested on: dRet^M955T-expressing wing cells; test: in vivo cell migration assay in developing wing discs; conditions: for ptc>dRet^M955T-mediated EMT and cell migration/invasion: wing discs of ptc>dRet^M955T larvae; for effect of reduced Lk6 on suppression of cell migration by compound: 765>dRet^M955T
From the text: For in vivo cell migration assays, third-instar larvae were dissected to collect developing wing discs. After fixation with 4% paraformaldehyde in PBS, discs were whole-mounted and observed for dRet^M955T-expressing cells labeled with GFP under a confocal microscope. At least 20 wing discs were studied for each genotype or treatment. Phospho-Src was stained with anti-Src(pY418) antibody (Invitrogen).
In addition to directing late lethality, the ptc>dRet^M955T transgenes targeted dRet^M955T expression to a stripe of cells at the midline of the developing wing disc epithelium; cells were visualized with an included UAS-GFP transgene.

ptc>dRet^M955T flies [3] = test: rescue-from-lethality assay in ptc>dRet^M955T flies (drug screening); format: in vivo, Drosophila; conditions: drug in fly food, 25° C.
human BRAF = biological target: T1, human BRAF (Homo sapiens, UniProt P15056); test: Kd measurement (KINOMEscan bead based competition assay), BRAF; conditions: in vitro binding assay
T1 construct: phage display fusion (kinase expressed on phage); purchased DiscoverX (KINOMEscan service); host or cells: phage
Description: Kd values were determined by DiscoverX using a bead based competition assay (KINOMEscan). In brief, kinases were expressed on phage and immobilized on beads via active site-directed ligands. Test compounds were premixed with kinases and assayed for the ability to compete for immobilized ligands. Binding constants were calculated with a standard dose-response curve and the Hill equation, with Hill slope set to −1. […] Kd values and s.e.m. are the average of two biological replicates.

TT human MTC cells = test: soft agar colony formation assay; format: cell-based; conditions: colonies at three weeks
From the text: Imaged with ×40. […] Error bars, standard errors in triplicate.

MKNK1 = biological target: T2, MKNK1 (Homo sapiens, UniProt Q9BUB5); test: Kd measurement (KINOMEscan bead based competition assay), MKNK1; format: binding; conditions: in vitro
T2 construct: phage display fusion (kinase expressed on phage); purchased DiscoverX (KINOMEscan service); host or cells: phage
Description: (§1) Kd values were determined by DiscoverX using a bead based competition assay (KINOMEscan). In brief, kinases were expressed on phage and immobilized on beads via active site-directed ligands. Test compounds were premixed with kinases and assayed for the ability to compete for immobilized ligands. Binding constants were calculated with a standard dose-response curve and the Hill equation, with Hill slope set to −1. […] For each sorafelog-kinase pair, an 11-point series ranging from 30,000 to 0.5 nM, in 3-fold dilutions, were used to derive Kd values. Kd values and s.e.m. are the average of two biological replicates.

human RET = biological target: T3, human RET (Homo sapiens, UniProt P07949); test: Kd measurement (KINOMEscan bead based competition assay), RET; format: binding; conditions: cell-free in vitro
T3 construct: phage display fusion (kinase expressed on phage); purchased DiscoverX (KINOMEscan service); host or cells: phage
Description: as §1

765>dRet^M955T flies = test: wing venation assay in adult flies; conditions: for ectopic wing venation in 765>dRet^M955T flies: doses tested
From the text: More than 15 adult wings were scored for abnormal wing venation.

RET(M918T) = biological target: T4, RET(M918T) (Homo sapiens, UniProt P07949, M918T); test: Kd measurement (KINOMEscan bead based competition assay), RET(M918T); format: binding; conditions: in vitro
T4 construct: phage display fusion (kinase expressed on phage); purchased DiscoverX (KINOMEscan service); host or cells: phage
Description: as §1

TT cell tumors = test: TT cell xenograft assay in nude mice; format: in vivo, mouse; conditions: 10 mg/kg/day p.o.
Description: FIGS. 66C-E illustrate the effectiveness of the oral administration of APS6-45 to mice with xenografts. […] Dosing (10 mg/kg/day each) was started on day 0 after establishing TT cell tumors (˜120 mm^3) subcutaneously in nude mice. Error bars, standard errors (n=10). Cabo, cabozantinib; soraf, sorafenib. […] FIG. 66D and FIG. 67 illustrate Waterfall plots showing percent changes in tumor volume on day 30 relative to pretreatment baselines. Each bar represents a single animal. […] Asterisk, complete response. Two mice were lost during the course of the experiment due to unknown causes. Administration of APS6-45 had no effect on mouse body weight as illustrated in FIG. 66E (same legend as FIG. 66C).
Xenograft assays were also performed by Washington Biotechnology. 40 female nude mice (5-6 weeks) were implanted subcutaneously with TT cells. […]

[4] = pharmacokinetics assay in mice (clinical signs); format: in vivo, mouse; conditions: male ICR mice, 20 mg/kg orally
Description: Phamacokinetics assays for APS6-45 were performed by Medicilon Preclinical Research (Shanghai, China). 20 mg/kg of APS6-45 was dosed orally to male ICR mice (5-6 weeks of age), and its plasma concentrations were determined at 0.25, 0.5, 1, 2, 4, 8, 10, and 24 hours post dosing.

toleration assay in mice = format: in vivo, mouse; conditions: female athymic nude mice, oral doses escalated from 0.1 up to 160 mg/kg/day
Description: Toleration assays for APS6-45 were performed by Washington Biotechnology (Baltimore, Md.). Briefly, five female athymic nude mice (5-6 weeks) were administered with increasing oral doses of APS6-45 starting at 0.1 mg/kg/day and observed for 2 days for signs of clinical distress such as weight loss, discharges, and morbidity.

ptc>dRet^M955T flies [5] = test: kinome genetic modifier screening of ptc>dRet^M955T flies in the presence of drug; format: in vivo, Drosophila
FRK = biological target: T5, FRK (Homo sapiens, UniProt P42685); test: kinase percent inhibition measurement, FRK; format: biochemical; conditions: cell-free kinase inhibition assay, compounds screened at 1 μM
T5 construct: purchased ThermoFisher
Description: (§2) The sorafelogs were assayed against a panel of purified human kinases (ThermoFisher) to measure percentage inhibition values and derive kinome profiles (FIG. 61). All compounds were screened at 1 μM, using two biological replicates to determine percent inhibition values. Detailed procedures for kinase reactions and assay formats are described at www.thermofisher.com/kinaseprofiling.

EPH = test: kinase percent inhibition measurement, EPH; format: biochemical, human; conditions: cell-free kinase inhibition assay, compounds screened at 1 μM
Description: as §2

non-oncogenic w^- flies = test: whole-body toxicity in control, non-transformed flies; format: in vivo, Drosophila; conditions: fed to control

T1 sequence (P15056 whole entry, the tested form may be a part): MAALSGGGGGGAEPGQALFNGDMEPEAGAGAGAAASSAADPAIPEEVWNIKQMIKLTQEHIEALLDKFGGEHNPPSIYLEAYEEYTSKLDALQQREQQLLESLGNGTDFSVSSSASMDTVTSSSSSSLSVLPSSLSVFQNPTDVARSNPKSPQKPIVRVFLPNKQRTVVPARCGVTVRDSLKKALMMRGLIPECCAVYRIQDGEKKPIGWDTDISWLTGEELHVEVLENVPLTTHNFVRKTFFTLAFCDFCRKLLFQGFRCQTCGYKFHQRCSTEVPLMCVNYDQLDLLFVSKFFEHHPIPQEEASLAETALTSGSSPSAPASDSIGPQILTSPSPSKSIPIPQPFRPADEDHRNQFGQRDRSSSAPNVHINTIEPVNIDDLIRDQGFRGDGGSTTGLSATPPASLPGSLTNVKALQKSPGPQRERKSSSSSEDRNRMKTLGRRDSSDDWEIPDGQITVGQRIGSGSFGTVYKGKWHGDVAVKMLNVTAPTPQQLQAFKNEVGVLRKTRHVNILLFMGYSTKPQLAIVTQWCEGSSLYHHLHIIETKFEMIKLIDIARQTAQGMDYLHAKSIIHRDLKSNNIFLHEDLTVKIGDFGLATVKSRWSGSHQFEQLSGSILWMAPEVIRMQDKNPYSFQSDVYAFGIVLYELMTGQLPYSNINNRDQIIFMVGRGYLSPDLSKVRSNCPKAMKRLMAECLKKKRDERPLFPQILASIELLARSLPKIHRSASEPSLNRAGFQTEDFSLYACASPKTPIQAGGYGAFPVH
T3 sequence (P07949 29-1114): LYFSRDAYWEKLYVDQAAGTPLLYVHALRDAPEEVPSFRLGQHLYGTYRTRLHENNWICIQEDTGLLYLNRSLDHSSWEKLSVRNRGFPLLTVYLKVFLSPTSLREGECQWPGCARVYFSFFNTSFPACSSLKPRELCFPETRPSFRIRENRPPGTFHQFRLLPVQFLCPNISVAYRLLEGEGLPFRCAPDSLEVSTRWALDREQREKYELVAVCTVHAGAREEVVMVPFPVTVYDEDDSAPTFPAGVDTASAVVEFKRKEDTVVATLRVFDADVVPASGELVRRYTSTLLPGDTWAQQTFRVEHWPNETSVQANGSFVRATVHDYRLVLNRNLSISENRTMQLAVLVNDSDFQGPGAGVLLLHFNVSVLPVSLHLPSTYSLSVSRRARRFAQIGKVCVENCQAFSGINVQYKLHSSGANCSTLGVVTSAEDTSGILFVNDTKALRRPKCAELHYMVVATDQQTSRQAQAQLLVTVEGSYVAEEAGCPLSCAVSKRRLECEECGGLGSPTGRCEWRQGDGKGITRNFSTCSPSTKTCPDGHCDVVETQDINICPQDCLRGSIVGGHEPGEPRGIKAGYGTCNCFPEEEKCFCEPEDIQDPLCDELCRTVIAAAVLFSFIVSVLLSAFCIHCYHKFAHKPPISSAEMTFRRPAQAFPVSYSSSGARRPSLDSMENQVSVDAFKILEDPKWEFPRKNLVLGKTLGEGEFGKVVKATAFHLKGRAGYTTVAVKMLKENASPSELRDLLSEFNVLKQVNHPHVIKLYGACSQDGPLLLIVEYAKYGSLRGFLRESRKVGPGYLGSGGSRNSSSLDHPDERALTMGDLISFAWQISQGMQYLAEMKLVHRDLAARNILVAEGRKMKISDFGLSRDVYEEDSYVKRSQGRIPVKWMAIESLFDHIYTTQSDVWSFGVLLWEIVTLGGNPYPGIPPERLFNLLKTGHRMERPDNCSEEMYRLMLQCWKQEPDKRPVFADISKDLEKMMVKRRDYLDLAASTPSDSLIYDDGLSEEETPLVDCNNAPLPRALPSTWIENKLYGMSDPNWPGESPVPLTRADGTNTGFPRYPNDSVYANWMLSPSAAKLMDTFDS
T2 sequence (Q9BUB5 whole entry, the tested form may be a part): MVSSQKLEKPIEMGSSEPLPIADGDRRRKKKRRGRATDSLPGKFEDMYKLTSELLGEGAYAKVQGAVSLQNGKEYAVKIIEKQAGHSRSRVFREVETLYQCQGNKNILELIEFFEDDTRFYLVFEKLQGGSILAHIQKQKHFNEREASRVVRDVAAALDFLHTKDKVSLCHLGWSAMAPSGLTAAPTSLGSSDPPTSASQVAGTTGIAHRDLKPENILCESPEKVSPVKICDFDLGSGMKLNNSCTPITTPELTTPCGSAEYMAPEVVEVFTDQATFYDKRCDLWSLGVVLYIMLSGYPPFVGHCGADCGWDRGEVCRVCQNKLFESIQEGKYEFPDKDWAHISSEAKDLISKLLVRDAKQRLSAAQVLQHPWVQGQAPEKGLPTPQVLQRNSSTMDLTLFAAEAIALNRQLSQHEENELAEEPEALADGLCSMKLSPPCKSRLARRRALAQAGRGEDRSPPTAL
T4 sequence (P07949 29-1114 M918T): as the sequence (P07949 29-1114) above, with M890T counted along it
T5 sequence (P42685 whole entry): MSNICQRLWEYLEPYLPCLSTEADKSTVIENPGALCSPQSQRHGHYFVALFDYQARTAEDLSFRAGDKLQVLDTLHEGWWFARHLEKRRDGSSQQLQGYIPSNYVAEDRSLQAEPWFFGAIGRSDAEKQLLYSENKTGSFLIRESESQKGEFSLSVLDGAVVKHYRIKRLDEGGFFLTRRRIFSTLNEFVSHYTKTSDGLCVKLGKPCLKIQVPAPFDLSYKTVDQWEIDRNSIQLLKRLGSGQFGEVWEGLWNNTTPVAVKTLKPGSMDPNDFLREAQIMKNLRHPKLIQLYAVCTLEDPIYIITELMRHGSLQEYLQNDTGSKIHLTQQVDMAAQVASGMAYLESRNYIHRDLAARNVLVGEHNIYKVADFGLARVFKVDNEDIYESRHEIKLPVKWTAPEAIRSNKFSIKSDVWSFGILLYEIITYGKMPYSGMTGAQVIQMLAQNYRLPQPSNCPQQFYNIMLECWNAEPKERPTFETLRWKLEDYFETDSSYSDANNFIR

Structure (SMILES): CC(C)n1nc(-c2ccc(NC(=O)Nc3cc(C(F)(F)F)ccc3F)cc2)c2c(N)ncnc21 [AD80, reference compound]
- rough eye phenotype (ptc>dRet^M955T flies [1]): did not

Structure (SMILES): CNC(=O)c1cc(Oc2ccc(NC(=O)Nc3cc(C(F)(F)F)ccc3F)c(F)c2)ccn1 [APS3-69-1, 4-(3-Fluoro-4-(3-(2-fluoro-5-(trifluoromethyl)phenyl)ureido)phenoxy)-N-methylpicolinamide]
- ptc>dRet^M955T-mediated EMT and cell migration/invasion [2]: strongly suppressed

Structure (SMILES): CNC(=O)c1cc(Oc2ccc(NC(=O)Nc3cc(C)ccc3F)cc2)ccn1 [APS4-35-1, 4-(4-(3-(2-Fluoro-5-methylphenyl)ureido)phenoxy)-N-methylpicolinamide]
- rescue of ptc>dRet^M955T viability, in words (ptc>dRet^M955T flies [3]): poor whole animal activity relative to LS1-15; also recorded: reduced rescue

Structure (SMILES): CNC(=O)c1cc(Oc2ccc(NC(=O)Nc3cc(C(F)F)ccc3F)cc2)ccn1 [APS4-54, 4-(4-(3-(5-(Difluoromethyl)-2-fluorophenyl)ureido)phenoxy)-N-methylpicolinamide]
- rescue of ptc>dRet^M955T viability, in words (ptc>dRet^M955T flies [3]): poor whole animal activity relative to LS1-15; also recorded: reduced rescue

Structure (SMILES): CNC(=O)c1cc(Oc2ccc(NC(=O)Nc3cc(C(F)(F)C(F)(F)F)ccc3F)cc2)ccn1 [APS5-16-2, 4-(4-(3-(2-Fluoro-5-(perfluoroethyl)phenyl)ureido)phenoxy)-N-methylpicolinamide]
- effect of reduced Lk6 on suppression of cell migration by compound [2]: not affected
- rescue of ptc>dRet^M955T viability, in words (ptc>dRet^M955T flies [3]): significant rescue; also recorded: strongly increased overall ptc>dRet^M955T survival beyond LS1-15
- BRAF binding, in words (human BRAF): significantly reduced BRAF binding
- MTC colony formation (TT human MTC cells): Suppression of MTC colony formation
- MKNK1 binding, in words (MKNK1): significantly reduced MKNK1 binding
- RET binding / inhibition, in words (human RET): retaining RET inhibition
- ectopic wing venation in 765>dRet^M955T flies (765>dRet^M955T flies): exclusively suppressed wing venation; also recorded: failed to promote ectopic wing venation

Structure (SMILES): CNC(=O)c1cc(Oc2ccc(NC(=O)Nc3cc(C(F)(C(F)(F)F)C(F)(F)F)ccc3F)cc2)ccn1 [APS6-45, 4-(4-(3-(2-Fluoro-5-(perfluoropropan-2-yl)phenyl)ureido)phenoxy)-N-methylpicolinamide]
- activity against oncogenic RET, in words (RET(M918T)): lower activity
- effect of reduced Lk6 on suppression of cell migration by compound [2]: not affected
- rescue of ptc>dRet^M955T viability, in words (ptc>dRet^M955T flies [3]): strongest efficacy; also recorded: strongly increased overall ptc>dRet^M955T survival beyond LS1-15
- rescue of ptc>dRet^M955T flies (rescued adults / total pupae, viability) (ptc>dRet^M955T flies [3]; optimal doses): 84%
- TT cell tumor growth in nude mice (TT cell tumors): Suppression of TT cell growth in vivo
- mouse body weight (TT cell tumors; xenograft study): no effect
- BRAF binding, in words (human BRAF): significantly reduced BRAF binding
- treatment-related clinical signs [4]: No treatment-related clinical signs were observed
- MTC colony formation (TT human MTC cells): Suppression of MTC colony formation
- MKNK1 binding, in words (MKNK1): only a small decrease
- RET binding / inhibition, in words (human RET): retaining RET inhibition; also recorded: lower activity; also recorded: weakest RET binding
- signs of clinical distress (weight loss, discharges, morbidity) (toleration assay in mice): no such signs were observed
- rough eye phenotype (ptc>dRet^M955T flies [1]): strongly suppressed; also recorded: strongly rescued the rough eye phenotype
- ectopic wing venation in 765>dRet^M955T flies (765>dRet^M955T flies): exclusively suppressed wing venation; also recorded: failed to promote ectopic wing venation

Structure (SMILES): CNC(=O)c1cc(Oc2ccc(NC(=O)Nc3cccc(C(F)(F)F)c3)cc2)ccn1 [LS1-11-2, N-Methyl-4-(4-(3-(3-(trifluoromethyl)phenyl)ureido)phenoxy)picolinamide]
- rescue of ptc>dRet^M955T viability, in words (ptc>dRet^M955T flies [3]): reduced survival

Structure (SMILES): CNC(=O)c1cc(Oc2ccc(NC(=O)Nc3cc(C(F)(F)F)ccc3F)cc2)ccn1 [LS1-15, 4-(4-(3-(2-Fluoro-5-(trifluoromethyl)phenyl)ureido)phenoxy)-N-methylpicolinamide]
- effect of reduced Lk6 on suppression of cell migration by compound [2]: reversed suppression
- ptc>dRet^M955T-mediated EMT and cell migration/invasion [2]: strongly suppressed
- rescue of ptc>dRet^M955T viability, in words (ptc>dRet^M955T flies [3]): rescued viability significantly better than sorafenib; also recorded: most effective in rescuing lethality
- viability of drug-treated ptc>dRet^M955T flies (kinase-proficient control) (ptc>dRet^M955T flies [5]; 23° C.): ~50%
- survival to adulthood of ptc>dRet^M955T, Lk6^−/+ flies (ptc>dRet^M955T flies [5]; one active allele of Lk6 removed, in the presence of drug): 0%
- viability of ptc>dRet^M955T, phl^−/+ flies (ptc>dRet^M955T flies [5]; phl (Raf ortholog) heterozygous, in the presence of drug): 96%
- BRAF binding, in words (human BRAF): significant binding
- inhibition of FRK kinase activity (FRK): inhibit
- inhibition of EPH kinase activity (EPH): inhibit
- wing venation at higher concentrations (765>dRet^M955T flies; higher concentrations / high doses that rescue ptc>dRet^M955T viability): suppressed venation; also recorded: did not promote ectopic wing venation
- wing venation at low dose (765>dRet^M955T flies; low dose (10 μM)): enhanced venation; also recorded: stimulated significant excess wing vein material

Structure (SMILES): CNC(=O)c1cc(Oc2ccc(NC(=O)c3ccc(Cl)c(C(F)(F)F)c3)cc2)ccn1 [LS1-37, 4-(4-(4-Chloro-3-(trifluoromethyl)benzamido)phenoxy)-N-methylpicolinamide]
- ptc>dRet^M955T-mediated EMT and cell migration/invasion [2]: worsened cell migration
- whole body toxicity (non-oncogenic w^- flies): toxic

Structure (SMILES): CNC(=O)c1cc(Oc2ccc(NC(=O)Nc3ccc(Cl)c(C(F)(F)F)c3)c(F)c2)ccn1 [regorafenib, 4-(4-(3-(4-Chloro-3-(trifluoromethyl)phenyl)ureido)-3-fluorophenoxy)-N-methylpicolinamide, reference compound]
- rescue of ptc>dRet^M955T viability, in words (ptc>dRet^M955T flies [3]): weak efficacy

From patent US10519113B2, “Kinase inhibitor compounds, compositions, and methods of treating cancer” (ICAHN SCHOOL OF MEDICINE AT MOUNT SINAI, priority 2016, dated 2019)
